Key:
[1] = system: CRPC patients with evidence of bone metastases; assay: Adaptive phase 2 trial (NCT00940225), case studies of the first three CRPC patients with bone metastases; type: in vivo, human; details: for PSA / serum tALP levels: Week 18
Procedure: In 2000, local disease recurrence was treated with radiation therapy. […] CAB with leuprolide and bicalutamide was initiated. […] All patients provided informed consent before study screening.

xenograft tumor models = assay: Xenograft tumor models; details: in vivo
[2] = system: murine pancreatic neuroendocrine tumor model; assay: Murine pancreatic neuroendocrine tumor model; details: mouse, in vivo

Structure (SMILES): COc1cc2nccc(Oc3ccc(NC(=O)C4(C(=O)Nc5ccc(F)cc5)CC4)cc3)c2cc1OC [Compound 1, N-(4-{[6,7-bis(methyloxy)quinolin-4-yl]oxy}phenyl)-N′-(4-fluorophenyl)cyclopropane-1,1-dicarboxamide]
- increase in hemoglobin ([1]; Patient 1, Week 2 compared with baseline): 1.4 g/dL
- radiotracer uptake by bone metastases on bone scan ([1]; Patient 1, Week 6): dramatic decrease
- bone lesions ([1]; Patient 1, Week 12): near complete resolution
- PSA ([1]; Patient 1, 430 ng/mL at baseline): 93.5 ng/mL
- serum tALP levels ([1]; Patient 1, 689 U/L at baseline): 159 U/L
- bone pain ([1]; Patient 1, four weeks after start): significant reduction
- bone pain ([1]; Patient 2, Week 4): reduction
- radiotracer uptake by bone lesions on bone scan ([1]; Patient 2, Week 6): slight flair
- radiotracer uptake ([1]; Patient 2, Week 12): substantial reduction
- hemoglobin increase ([1]; Patient 2, Week 12 compared with baseline): 1.8 g/dL
- PSA peak ([1]; Patient 2, Week 16, after placebo Week 12 to 15, crossed over to Compound 1 at Week 15): ~6 fold of baseline
- PSA ([1]; Patient 2, subsequent to crossing over to Compound 1 from placebo): 2 fold of baseline
- hemoglobin increase ([1]; Patient 3, Week 2 compared with baseline): 2.2 g/dL
- radiotracer uptake on bone scan ([1]; Patient 3, Week 6): dramatic reduction
- bone lesions on bone scan ([1]; Patient 3, Week 12): complete resolution
- PSA ([1]; Patient 3, 2.4 ng/mL at screening): 1.2 ng/mL
- serum tALP levels ([1]; Patient 3, 869 U/L at baseline): 197 U/L
- pain ([1]; Patient 3, after three weeks): complete resolution
- uptake of radiotracer on bone scan ([1]; all three patients, summary): striking decrease
- bone lesions ([1]; three metastatic CRPC patients, summary): near complete resolution
- effect on tumors in xenograft tumor models (xenograft tumor models): tumor regression
- overall survival [2]: substantially improves
- tumor invasiveness and metastasis [2]: significantly reduces
